# Assay results taken from patent US4140777A, “Cerebral vasodilating 6-substituted vincamines” (Enrico Corvi Mora, priority 1976, dated 1979).
# Where a name gives a salt, the structure may show the parent alone.
# Key:
# Format in all cases: in vivo
# [1] = Acute toxicity per intraperitoneal route (LD50, method of Litchfield and Wilcoxon; Gleason classification); conditions: in vivo, ip; Swiss male mouse, suspension in 1% carboxymethylcellulose, observation 8 days
# Description: (§1) The acute toxicity was assessed in the mouse of the Swiss type, having an average body weight of 20 g and of male sex, groups of 5 animals being used, according to the method of Litchfield and Wilcoxon (observation time: 8 days). The compounds were administered as a suspension in 1% carboxymethylcellulose.
# (§2) The acute toxicity was low for all the examined compounds, as confirmed by the following table, in which those of the vincamine HCl and of the apovincamine are also reported.
# (§3) In fact, for all the compounds, the toxicity, when evaluated according to the method of Gleason, can be classified as light, modest or negligible.
# mouse of the Swiss type = experiment: as above; conditions: Gleason toxicity class, mouse i.p.
# Description: as §1, §2, §3
# vertebral arteria = experiment: Variation of the hematic flow at the vertebral arteria after i.v. administration (cerebral vasodilating activity); conditions: anestetized dog, i.v. (femoral vein) 5 mg/kg, left vertebral arteria, electromagnetic flowmeters
# Text: The cerebral vasodilating activity was studied in the anestetized dog, by measuring, by means of Statham periarterial electromagnetic flowmeters, the hematic flow at the level of the vertebral arteria which, in such animal species, constitutes the greatest blood supply to the brain.
# The results are reported in the TABLE as the percent variations of the flow measured at the level of the left vertebral arteria after the administration of the several compounds to be tested to groups of 4 animals for each compound. The results also confirm that the compounds of the invention are all endowed with a vasodilating activity at the level of the cerebral circulus. Such an action for some compounds is more relevant with respect to that of vincamine and of apovincamine.
# [2] = Absorption: hematic levels at different times from the oral administration; conditions: blood, 100 mg/kg expressed as vincamine and apovincamine, suspension in 5% carboxymethyl cellulose, chromatographic method, read-out: max. conc. time (converted)
# Description: All the compounds have been orally administered at the dosage of 100 mg/kg, expressed as vincamine and apovincamine, in form of a suspension in a 5% carboxymethyl cellulose solution.
# The absorption was determined by evaluating the hematic levels at the following times (minutes): 0, 30, 120, 240, 480, 10 hours and 12 hours, at which it was possible to assess the time, from the administration, of the maximum hematic concentration.
# The vincamine and apovincamine concentrations were assessed by chromatographic method.
# For the evaluation of the prolonged action the following criterium was adopted; as derivatives having a long-acting effect, there are considered those which, 120 minutes after the administration, show hematic levels higher than those obtained with vincamine and apovincamine.
Structure (SMILES),LD50 at 192 h [1] [mg/kg],Tox (Gleason) (mouse of the Swiss type),Percent variations of the hematic flow at the vertebral arteria (vertebral arteria),Tmax [2] [min]
CC[C@]12CCCN3CC(=O)c4c(n(c5ccccc45)C(O)(CO)C1)[C@@H]32 (some centres unmarked) [6-ketovincaminol],1500,light,+30.2%,
"CC[C@]12CCCN3CCc4c(n(c5ccccc45)[C@@](O)(C(=O)OC)C1)[C@@H]32 [Vincamine HCl, reference compound]",800,modest,+24.1%,20
CC[C@@]12C=C(C(=O)OC)n3c4c(c5ccccc53)C(=O)CN(CCC1)[C@H]42 [6-ketoapovincamine],> 2000,,+29.2%,
CC[C@]12CCCN3CC(=O)c4c(n(c5ccccc45)C(=O)C1)[C@@H]32 [6-ketovincamone],> 2000,,+30.2%,
"CC[C@@]12C=C(C(=O)OC)n3c4c(c5ccccc53)CCN(CCC1)[C@H]42 [Apovincamine, reference compound]",> 2000,negligible,+25.6%,60
CC[C@]12CCCN3CC(=O)c4c(n(c5ccccc45)[C@@](O)(C(=O)OC)C1)[C@@H]32 [6-ketovincamine],> 2000,,+28.4%,
CC[C@]12CCCN3CC(O)c4c(n(c5ccccc45)C(O)(C(=O)OC)C1)[C@@H]32 (some centres unmarked) [6-hydroxyvincamine],900,modest,+33.4%,
CC[C@]12CCCN3CC(=O)c4c(n(c5ccccc45)[C@](O)(C(=O)OC)C1)[C@@H]32 [6-keto-16-epivincamine],> 2000,negligible,+35.7%,
